Ends that are not written are not given here.
How the values were obtained:
RGNNV [1] = test system: RGNNV; parameters: method as in Zhu et al. [2022]; details: RGNNV-infected hybrid grouper; ref Zhu et al. [2022]; cited from earlier work
Protocol: Given RGNNV’s rapid organ colonisation (Valero et al. [2018]), treatments were administered 2 h post-infection to ensure viral establishment.

SJNNV = format: cell-based, striped jack nervous necrosis virus (strain SJNag97); details: virus (MOI 0.01) incubated with 500 μg/mL peptide for 15 min at 25 °C, titrated in E-11 cells; control virus + PBS; representative of two independent assays; Fig. 2B
Protocol: (§1) Parental RGNNV (strain It/411/96), SJNNV (strain SJNag97), and reassortant isolates (RGNNV/SJNNV, 367.2.2005; SJNNV/RGNNV, 389/I96) were used. Viruses were propagated in E − 11 cells cultured in L-15 Leibovitz medium (BioWest) supplemented with 5% FBS, 2 mM L-glutamine, and 100 IU/mL penicillin/streptomycin (Thermo Fisher Scientific) at 25 °C. Infected monolayers were incubated at 25 °C until extensive cytopathic effect (CPE) developed. Supernatants were then harvested, centrifuged, and titrated in triplicate using the end-point dilution method, expressed as TCID₅₀/mL (Reed and Müench [1938]).
(§2) For in vitro antiviral assays, viral cultures (MOI 0.01) from parental and reassortant strains were incubated with peptides (single or combined) using a non-lethal concentration previously tested (500 μg/mL; León et al. [2020]), for 15 min at 25 °C with gentle agitation. Controls were virus samples incubated with PBS (100% viral activity). Treated samples were titrated as previously. After medium removal, cells were exposed to ten-fold viral dilutions in 2% FBS. CPE was monitored daily for 10 days, and viral titres were calculated as TCID₅₀/mL (Reed and Müench [1938]) and expressed as viral titre or percent inhibition relative to controls.
Fig. 2 Designed peptides, single or combined, reduce the NNV absorption in vitro. NNV parental or reassortant genotypes were incubated with 500 μg/mL of the synthetic peptides for 15 min. Then, the viruses were titrated in the E − 11 cell line. Control samples consisted on virus incubated with the same amount of phosphate buffer saline. (A) Viral titer (TCID50/mL) and (B) % of virus inhibition with respect to the controls are represented. Data are representative of two independent assays. […] Each bar was matched to a substance by its colour and by the order of the legend.

RGNNV [2] = test: RGNNV in vivo bath challenge of European sea bass with peptide injection after infection; parameters: species or system European sea bass (Dicentrarchus labrax)
Protocol: RGNNV In vivo Challenge of European Sea Bass
A total of 375 sea bass were randomly assigned to eight experimental groups (in duplicate) and acclimated for 15 days. Seven groups were infected by immersion (10 L; 3.16 × 10^4 TCID₅₀ RGNNV/mL; 2 h), while a mock-infected control received conditioned medium. […] Combinations were selected according to the results obtained in the competitive in vitro assay against RGNNV (see below). Disease signs and mortalities were monitored daily for 23 days post-infection (dpi) using a four-rank scale (Valero et al. [2021a]). Fish (n = 6/group/time-point) were sampled at 2 and 23 dpi, euthanized with clove oil, bled, and weighed. Brain, NNV target tissue, and head-kidney, major hematopoietic tissue in fish, were dissected, frozen in TRIzol (Life Technologies), and stored at − 80 °C.
For viral load analysis, total RNA was extracted from sea bass brain and head-kidney using TRIzol (Life Technologies) and from E − 11 cells using the GenJET RNA Purification Kit (Thermo Fisher Scientific), following manufacturer protocols. One microgram of RNA was DNAse I-treated (1 U/µL; Thermo Scientific), and cDNA was synthesized using Superscript IV Reverse Transcriptase (Invitrogen). qPCR was performed on a QuantStudio 5 Flex (Applied Biosystems) to quantify cp, rdrp and mx genes using PowerUp SYBR Green reagents (Applied Biosystems). The protocol included a 95 °C hold, then 40 cycles (95 °C; 15 s) and 60 °C for 1 min. Relative expression was calculated using the 2^⁻ΔCt method (Livak and Schmittgen [2001]), with ef1a as the endogenous control. Primers (Supplementary Data S2) were validated by melting curve analysis and negative controls.
Fish mortality was analysed using Kaplan–Meier survival curves with log-rank (Mantel–Cox) tests for significance. Relative gene expression was evaluated by one-way ANOVA (p ≤ 0.05) followed by Tukey’s test. Viral kinetics were compared between P4-treated and untreated groups using Student’s t-test (p ≤ 0.05) at specific time points. All analyses were performed with IBM SPSS Statistics 20.
Fig. 4 Therapeutic administration of synthetic peptides improves survival and symptomatology in […] (RGNNV)-infected European sea bass juveniles. […] A mock-infected group was treated twice with only PBS. (A) Kaplan–Meier survival curves; (B) Heat-map representing the cumulated number of fish showing clinical signs of VER disease attending to their severity: (1) changes of the color of the skin, slower rhythm of swimming and/or slower reaction to external stimuli as feeding; (2) alterations in the swimming balance and/or erratic swimming spasms; (3) continuous erratic swimming; and (4) complete incapacity to keep balance, swim and/or move without external stimuli. VER, viral encephalopathy and retinopathy
Fig. 5 Therapeutic administration of synthetic peptides decreased viral loads in the brain without additional mx gene regulation in the sea bass juveniles head-kidney infected with red-spotted grouper nervous necrosis virus (RGNNV). […] A mock-infected group was treated twice with only PBS. (A–C) Transcription levels of RGNNV cp (A) and rdrp (B) genes in the brain and (C) mx gene in the head-kidney. Data represent the relative gene expression mean ± SEM (n = 6). Different letters indicate significant differences among groups according to the ANOVA (p < 0.05)

E-11 cells = test: MTT cytotoxicity test on E-11 cells; format: cell-based; details: 24 h at 25 °C, mean of n = 3, control = 100.0
Protocol: Synthetic peptides cytotoxicity on E − 11 cells was assessed using the MTT (Sigma) test with serial peptide dilutions (1000–4 µg/mL in L − 15 medium; n = 3; 24 h at 25 °C) as elsewhere (Cervera et al. [2024c]). Absorbance was measured at 570 nm (BMG Labtech); blanks lacked cells. Cell viability was calculated as the OD ratio of treated to untreated cells × 100, normalized at 690 nm.
Supplementary data S4: Cell viability (%) of E-11 cells after incubation with the synthetic peptides for 24 h. Data represent the mean ± SEM (n=3).

RGNNV/SJNNV reassortant = test: In vitro antiviral (competition) assay: virus incubated with peptide, then titrated in E-11 cells; format: cell-based, RGNNV/SJNNV reassortant (367.2.2005); details: virus (MOI 0.01) incubated with 500 μg/mL peptide for 15 min at 25 °C, control virus + PBS, representative of two independent assays, Fig. 2B
Protocol: as §1, §2
Fig. 2 Designed peptides, single or combined, reduce the NNV absorption in vitro. […]

NNV = details: synthetic sea bass peptides, NNV infection; ref Cervera et al. [2024b], [2025]; cited from earlier work
Protocol: Since co-administered peptides disrupt RGNNV adsorption in vitro, we evaluated their therapeutic potential in vivo by administering them […]. […] Given RGNNV’s rapid organ colonisation (Valero et al. [2018]), treatments were administered 2 h post-infection to ensure viral establishment.

For `NC12CC3CC(CC(C3)C1)C2` [amantadine], the Improvement of survival (RGNNV [1]) is given as 44%.
For PRLGHAARIFQRYA-NH2 [Peptide P3], the “% of virus inhibition with respect to the controls, SJNNV” value (SJNNV) was 90%, the “Relative percent survival (RPS)” value (RGNNV [2]; juvenile sea bass, bath infection 3.16 × 10^4 TCID₅₀ RGNNV/mL for 2 h, then intramuscular injection 1 µg peptide/g, 23 dpi, infected PBS group 63.6% survival) was 62.5% and the “RGNNV cp gene expression in the brain” value (RGNNV [2]; qPCR relative to ef1a, 2 dpi, n = 6, 1 µg peptide/g i.m. after RGNNV bath challenge, Fig. 5A) was “lowered”. The “RGNNV rdrp gene expression in the brain” value (RGNNV [2]; qPCR relative to ef1a, 2 dpi, n = 6, 1 µg peptide/g i.m. after RGNNV bath challenge, Fig. 5B) was “lowered”, the “Viability (%) of E-11 cells, mean” value (E-11 cells; peptide 0.00411 mg/mL) was 89.4% and the “Viability (%) of E-11 cells, mean” value (E-11 cells; peptide 0.01234 mg/mL) was 93.2%. For the same compound, the “Viability (%) of E-11 cells, mean” value (E-11 cells; peptide 0.03704 mg/mL) was 96.3%, the “Viability (%) of E-11 cells, mean” value (E-11 cells; peptide 0.11111 mg/mL) was 89.8% and the “Viability (%) of E-11 cells, mean” value (E-11 cells; peptide 0.33333 mg/mL) was 90.9%. The “Viability (%) of E-11 cells, mean” value (E-11 cells; peptide 1.00000 mg/mL) was 101.7% and the “% of virus inhibition with respect to the controls, RGNNV/SJNNV” value (RGNNV/SJNNV reassortant) was 96.84%.
In the case of Hepcidin, the Reduction of mortality (NNV) is listed as 30–35%.
